PMC8125234, “Cardiolipin Stabilizes and Increases Catalytic Efficiency of Carnitine Palmitoyltransferase II and Its Variants S113L, P50H, and Y479F” (International Journal of Molecular Sciences, 2021)
Residue numbers refer to the chain shown, from its start. Read-outs that look alike come from different tables or passages of the source.

Tests used:
Format in all cases: biochemical
CPT II variant S113L [1] = target: T1, CPT II variant S113L (Homo sapiens, UniProt P23786, S113L); test: Determination of inhibition constant Ki for R-amino carnitine (DTNB enzyme activity assay); settings: 25 °C
T1 construct: made in house; host or cells: Escherichia coli BL21Gold DE
T1 sequence (P23786 26-658 S113L): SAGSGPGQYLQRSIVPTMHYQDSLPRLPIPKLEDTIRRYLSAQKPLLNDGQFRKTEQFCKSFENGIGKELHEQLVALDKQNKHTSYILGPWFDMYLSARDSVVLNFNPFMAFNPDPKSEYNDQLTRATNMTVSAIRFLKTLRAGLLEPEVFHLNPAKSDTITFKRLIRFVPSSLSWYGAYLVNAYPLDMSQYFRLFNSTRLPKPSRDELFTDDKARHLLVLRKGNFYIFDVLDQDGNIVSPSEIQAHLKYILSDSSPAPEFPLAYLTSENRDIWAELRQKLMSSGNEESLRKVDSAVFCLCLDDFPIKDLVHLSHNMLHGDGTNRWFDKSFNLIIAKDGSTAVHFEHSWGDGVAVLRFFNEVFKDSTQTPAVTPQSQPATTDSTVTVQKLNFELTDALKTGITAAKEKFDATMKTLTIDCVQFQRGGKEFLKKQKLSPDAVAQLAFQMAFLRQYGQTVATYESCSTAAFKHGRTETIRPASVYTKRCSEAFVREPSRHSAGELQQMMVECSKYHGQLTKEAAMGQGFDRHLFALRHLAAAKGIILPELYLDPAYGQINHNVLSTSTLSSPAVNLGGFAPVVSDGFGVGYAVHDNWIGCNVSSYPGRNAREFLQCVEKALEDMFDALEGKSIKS
Description: (§1) Before activity measurements, the storage buffer of the enzymes was replaced with assay buffer (50 mM KH2PO4, 120 mM KCl, 1 mM EDTA-Na4) using vivaspin turbo 4 tubes (Satorius Stedim biotech GmbH, Göttingen, Germany) at 4 °C. The pH of assay buffer was adjusted with KOH to 7.4. The storage buffer was diluted at least 1:500 in assay buffer. In addition, before each experimental set up, the protein samples were centrifuged at 16,000× g for 5 min at 4 °C to remove any micro-aggregates. After that, the protein concentration was determined using bicinchoninic acid (BCA) protein assay kit (Thermo Fisher Scientific GmbH, Berlin, Germany). The enzyme activity of recombinant CPT II was performed following Rufer et al. with modifications described elsewhere. […] After pre-conditioning the mixture to 25 °C for 2 min, the reaction was started by adding 15 nM of recombinant enzyme. The reverse reaction of CPT II was detected with the enzyme activity assay. CPT II catalyzed the transfer of fatty acid residue from Pal-CoA to L-carnitine with release of CoA and Pal-carnitine. The released CoA was then detected by the reaction of the free thiol group with DTNB, forming 5-mercapto-(2-nitrobenzoic acid). This compound has a molar extinction coefficient of 13,600 M^−1 cm^−1 at a wavelength of 410 nm, and its formation was followed spectroscopically. […] The slope of the progress curve was used to determine the reaction velocity.
(§2) The inhibition constant Ki for the competitive inhibitor R-amino carnitine was determined using various concentrations (R-AC, 0, 0.25 and 0.5 mM). A concentration series of L-carnitine in the enzyme assay was used (0–200 mM) while the concentration of Pal-CoA remained constant at 30 µM. Experiments were performed at least three times independently as double determination.
(§3) The values for Ki were calculated on the basis of the obtained KM values, the Michaelis–Menten constant of the inhibited reaction KMi and the inhibitor concentration using the following equation [45]:(3) KMi=(1+[I]/ Ki)KM (4) Ki=KM·[I]/KMi−KM

CPT II variant P50H [2] = target: T2, CPT II variant P50H (Homo sapiens, UniProt P23786, P50H); test: as above; settings: 25 °C
T2 construct: made in house; host or cells: Escherichia coli BL21Gold DE
T2 sequence (P23786 26-658 P50H): T1 sequence (P23786 26-658 S113L) with P25H, L88S
Description: as §1, §2, §3

CPT II variant Y479F [3] = target: T3, CPT II variant Y479F (Homo sapiens, UniProt P23786, Y479F); test: as above; settings: 25 °C
T3 construct: made in house; host or cells: Escherichia coli BL21Gold DE
T3 sequence (P23786 26-658 Y479F): T1 sequence (P23786 26-658 S113L) with L88S, Y454F
Description: as §1, §2, §3

CPT II WT [4] = target: T4, CPT II WT (Homo sapiens, UniProt P23786); test: as above; settings: 25 °C
T4 construct: made in house; host or cells: Escherichia coli BL21Gold DE
T4 sequence (P23786 26-658): T1 sequence (P23786 26-658 S113L) with L88S
Description: as §1, §2, §3

CPT II variant S113L [5] = target: T1, CPT II variant S113L; test: Determination of the kinetic parameters kcat and KM; settings: palmitoyl-CoA varied, 25 °C
Description: as §1
(§4) It is assumed that the reaction catalyzed by CPT II represents a ping-pong mechanism or compulsory order ternary-complex mechanism.
(§5) The kinetic parameters were determined by evaluating the obtained v/S characteristic according to the Michaelis–Menten Equation (1). The […] kcat was calculated using Equation (2):(1) v=Vmax∗[S]/KM+[S] (2) kcat=Vmax/cenzyme

CPT II variant P50H [6] = target: T2, CPT II variant P50H; test: as above; settings: palmitoyl-CoA varied, 25 °C
Description: as §1, §4, §5

CPT II variant Y479F [7] = target: T3, CPT II variant Y479F; test: as above; settings: palmitoyl-CoA varied, 25 °C
Description: as §1, §4, §5

CPT II WT [8] = target: T4, CPT II WT; test: as above; settings: palmitoyl-CoA varied, 25 °C
Description: as §1, §4, §5

[9] = 0.25 mM CL, read-out: Inhibition Constant Ki in Presence of CL
[10] = absence of CL, read-out: Inhibition Constant Ki in Absence of CL

C[N+](C)(C)C[C@H](N)CC(=O)[O-] [R-amino carnitine, R-Aminocarnitine]
Ki (CPT II variant S113L [1]; [9]): 36 ± 16 µM
Ki (CPT II variant S113L [1]; [10]): 173 ± 20 µM
Ki (CPT II variant P50H [2]; [9]): 46 ± 6 µM
Ki (CPT II variant P50H [2]; [10]): 134 ± 11 µM
Ki (CPT II variant Y479F [3]; [9]): 108 ± 39 µM
Ki (CPT II variant Y479F [3]; [10]): 756 ± 62 µM
Ki (CPT II WT [4]; [9]): 105 ± 2 µM
Ki (CPT II WT [4]; [10]): 493 ± 4 µM

CCCCCCCCCCCCCCCC(=O)SCCNC(=O)CCNC(=O)[C@H](O)C(C)(C)COP(=O)(O)OP(=O)(O)OC[C@H]1O[C@@H](n2cnc3c(N)ncnc32)[C@H](O)[C@@H]1OP(=O)(O)O [palmitoyl-CoA, Palmitoyl-Coenzyme A]
Km (CPT II variant S113L [5]; 0.25 mM CL): 12.3 ± 3 µM
kcat (CPT II variant S113L [5]; 0.25 mM CL): 145.8 ± 0.9 s⁻¹
Km (CPT II variant S113L [5]; absence of CL): 11 ± 3.6 µM
kcat (CPT II variant S113L [5]; absence of CL): 142.1 ± 25 s⁻¹
Km (CPT II variant P50H [6]; 0.25 mM CL): 6.7 ± 1.8 µM
kcat (CPT II variant P50H [6]; 0.25 mM CL): 138.2 ± 8.4 s⁻¹
Km (CPT II variant P50H [6]; absence of CL): 5.5 ± 1.4 µM
kcat (CPT II variant P50H [6]; absence of CL): 144.3 ± 18 s⁻¹
Km (CPT II variant Y479F [7]; 0.25 mM CL): 6.7 ± 0.3 µM
kcat (CPT II variant Y479F [7]; 0.25 mM CL): 144.8 ± 13 s⁻¹
Km (CPT II variant Y479F [7]; absence of CL): 5.1 ± 2.3 µM
kcat (CPT II variant Y479F [7]; absence of CL): 141.4 ± 1.7 s⁻¹
Km (CPT II WT [8]; 0.25 mM CL): 6.7 ± 1.1 µM
kcat (CPT II WT [8]; 0.25 mM CL): 145.3 ± 9.0 s⁻¹
Km (CPT II WT [8]; absence of CL): 7.1 ± 1.1 µM
kcat (CPT II WT [8]; absence of CL): 144.7 ± 3.1 s⁻¹
